Measurements from patent US12551541B2, “Albumin bound macromolecule tri-agonist activating GLP 1/GIP/glucagon receptors and methods therefor” (AlbuNext, LLC, priority 2023, dated 2026).

How the values were obtained:
[1] = 0.16 pmol/kg per minute; cited from earlier work
[2] = in vivo; cited from earlier work
GLP-1 receptor = GLP-1 receptor (Homo sapiens, UniProt P43220); details: cited from earlier work
[3] = monotherapy, cited from earlier work
[4] = tested on: DIO (diet induced obesity) mice; experiment: DIO (diet induced obesity) mice, single subcutaneous injection, NASH; type: in vivo; details: single dosage of 100 nmol/kg, over 26 days
Description: In still further experiments to confirm that contemplated compounds presented herein are also effective as modulators for hepatic metabolism, and particularly in the treatment and even at least partial reversion of NASH (non-alcoholic […]), the inventors tested selected compounds in DIO (diet induced obesity) mice. […] The body weight of all treated animals was recorded over 26 days, and average body weight over time for 16 and 26 days are shown in FIG. 34A and FIG. 34B, respectively.
To investigate liver function and metabolism, liver weight was determined at the end of the study and results are shown in FIG. 38. […] In addition, liver function was assessed at the end of the study by testing AST (aspartate aminotransferase) and ALT (alanine transaminase).
In still further tests for hepatic metabolic modulation, the inventors also determined total cholesterol and LDL cholesterol at the end of the study, and exemplary results are shown in FIG. 41 (for total cholesterol) and FIG. 42 (for LDL cholesterol). […] As diet induced obesity is also often associated with inflammation, the inventors also measured levels of selected pro-inflammatory cytokines. Here, IL-1α and IL-6 levels were determined at the end of the study.

GLP-1 receptor, sequence (P43220 24-463, species assumed): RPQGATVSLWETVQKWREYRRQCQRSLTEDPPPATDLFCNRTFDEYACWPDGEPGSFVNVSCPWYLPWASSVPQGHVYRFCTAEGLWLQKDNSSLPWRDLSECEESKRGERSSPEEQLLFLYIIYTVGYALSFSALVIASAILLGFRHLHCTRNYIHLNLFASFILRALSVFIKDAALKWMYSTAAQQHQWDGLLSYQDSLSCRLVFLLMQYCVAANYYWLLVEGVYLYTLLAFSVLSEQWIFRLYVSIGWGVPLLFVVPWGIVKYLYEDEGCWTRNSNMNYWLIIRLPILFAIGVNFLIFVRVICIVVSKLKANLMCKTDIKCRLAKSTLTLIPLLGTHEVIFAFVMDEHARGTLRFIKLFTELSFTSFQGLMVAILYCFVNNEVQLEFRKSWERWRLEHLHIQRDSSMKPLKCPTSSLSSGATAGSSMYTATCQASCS

Substance: GLP-1: naturally occurring hormone released by L cells in the lower intestine
- adverse events [1]: vomiting within eight minutes

Substance: albiglutide
- half-life [2]: 140 to 190 h
- GLP-1 receptor affinity (GLP-1 receptor): 20 nM
- decrease in HbA1c from baseline ([3]; 30 mg weekly dose, week 52): −0.7%
- change from baseline of HbA1c ([3]; 50 mg weekly dose): −0.9%

Substance: semaglutide [reference compound]
- body weight [4]: effective in reduction of body weight
